# Read-outs that look alike come from different tables or passages of the source.
# Columns and labels:
# [1] = rat, in vivo
# Procedure: (§1) Blood was taken from tail vessels at the time points 0, 10, 20, 40, 60, 90, 120 and 180 min after dosing.
# in vivo [2] = conditions: Sprague Dawley, rat, sc, 0.1 mg/kg
# Procedure: as §1
# [3] = pH of dissolved solid powder mixtures (Example 17); type: physicochemical
# in vivo [4] = conditions: Sprague Dawley, rat, sc
# Procedure: (§2) Teriparatide (PTH1-34) was dosed subcutaneously in volume of 1 ml/kg (final concentration 0.024 mg/ml teriparatide) to anaesthetized rats. […] Blood was taken from tail vessels at the time points 0, 10, 20, 40, 60, 90, 120 and 180 min after dosing. The teriparatide plasma concentrations were determined using commercial pTH (1-34) human ELISA kit (Biovendor, EU, cat. number RS-1163.0001).
# [5] = rat, in vivo; remark: listed apart in the source
# Procedure: as §2
# [6] = study comparing aprotinin with aminocaproic acid; cited from earlier work
molecule,measurement,setting,value
CCNC(=O)[C@@H]1CCCN1C(=O)[C@H](CCCNC(=N)N)NC(=O)[C@H](CC(C)C)NC(=O)[C@@H](CC(C)C)NC(=O)[C@H](Cc1ccc(O)cc1)NC(=O)[C@H](CO)NC(=O)[C@H](Cc1c[nH]c2ccccc12)NC(=O)[C@H](Cc1c[nH]cn1)NC(=O)[C@@H]1CCC(=O)N1 [Leuprolide],F,[1],100 ± 19.5%
same,AUC(0-t),in vivo [2],130 ng·h/mL
same,Cmax,in vivo [2],78.9 ± 14.7 ng/mL
same,Tmax,in vivo [2],20 to 40 min
"CC[C@H](C)[C@H](NC(=O)[C@H](CCC(=O)O)NC(=O)[C@H](CO)NC(=O)[C@@H](NC(=O)[C@@H](N)CO)C(C)C)C(=O)N[C@@H](CCC(N)=O)C(=O)N[C@@H](CC(C)C)C(=O)N[C@@H](CCSC)C(=O)N[C@@H](Cc1cnc[nH]1)C(=O)N[C@@H](CC(N)=O)C(=O)N[C@@H](CC(C)C)C(=O)NCC(=O)N[C@@H](CCCCN)C(=O)N[C@@H](Cc1cnc[nH]1)C(=O)N[C@@H](CC(C)C)C(=O)N[C@@H](CC(N)=O)C(=O)N[C@@H](CO)C(=O)N[C@@H](CCSC)C(=O)N[C@@H](CCC(=O)O)C(=O)N[C@@H](CCCN=C(N)N)C(=O)N[C@H](C(=O)N[C@@H](CCC(=O)O)C(=O)N[C@@H](Cc1c[nH]c2ccccc12)C(=O)N[C@@H](CC(C)C)C(=O)N[C@@H](CCCN=C(N)N)C(=O)N[C@@H](CCCCN)C(=O)N[C@@H](CCCCN)C(=O)N[C@@H](CC(C)C)C(=O)N[C@@H](CCC(N)=O)C(=O)N[C@@H](CC(=O)O)C(=O)N[C@H](C(=O)N[C@@H](Cc1cnc[nH]1)C(=O)N[C@@H](CC(N)=O)C(=O)N[C@@H](Cc1ccccc1)C(=O)O)C(C)C)C(C)C [PTH(1-34), Teriparatide]",Dissolution pH in 5 ml Aqua purificata,"[3]; CuSO4 10 mg, lauroyl carnitine 10 mg, MCC 50 mg, no buffer",3.6
same,Dissolution pH in 5 ml Aqua purificata,"[3]; CuSO4 10 mg, lauroyl carnitine 10 mg, gelatin capsule 50 mg, no buffer",4.4
same,Dissolution pH in 5 ml Aqua purificata,"[3]; CuSO4 10 mg, lauroyl carnitine 10 mg, lactose 50 mg, 10 mg TRIS",6.5
same,Dissolution pH in 5 ml Aqua purificata,"[3]; CuSO4 10 mg, lauroyl carnitine 10 mg, lactose 50 mg, buffer cell empty",3.2
same,Dissolution pH in 5 ml Aqua purificata,"[3]; CuSO4 10 mg, sucrose laurate 10 mg, lactose 50 mg, no buffer",5.0
same,Dissolution pH in 5 ml Aqua purificata,"[3]; ZnCl2 10 mg, lauroyl carnitine 10 mg, MCC 50 mg, 5 mg TRIS",6.3
same,Dissolution pH in 5 ml Aqua purificata,"[3]; ZnCl2 10 mg, lauroyl carnitine 10 mg, MCC 50 mg, no buffer",3.5
same,Dissolution pH in 5 ml Aqua purificata,"[3]; ZnCl2 10 mg, lauroyl carnitine 10 mg, gelatin capsule 50 mg, 10 mg TRIS",6.8
same,Dissolution pH in 5 ml Aqua purificata,"[3]; ZnCl2 10 mg, lauroyl carnitine 10 mg, gelatin capsule 50 mg, no buffer",4.3
same,Dissolution pH in 5 ml Aqua purificata,"[3]; ZnCl2 10 mg, lauroyl carnitine 10 mg, lactose 50 mg, 10 mg TRIS",7.1
same,Dissolution pH in 5 ml Aqua purificata,"[3]; ZnCl2 10 mg, lauroyl carnitine 10 mg, lactose 50 mg, buffer cell empty",2.9
same,Dissolution pH in 5 ml Aqua purificata,"[3]; ZnSO4 10 mg, lauroyl carnitine 10 mg, lactose 50 mg, 10 mg TRIS",7.5
same,Dissolution pH in 5 ml Aqua purificata,"[3]; ZnSO4 10 mg, lauroyl carnitine 10 mg, lactose 50 mg, no buffer",3.1
same,Dissolution pH in 5 ml Aqua purificata,"[3]; ZnSO4 10 mg, sucrose laurate 10 mg, lactose 50 mg, no buffer",6.5
same,Tmax,in vivo [4],10 min
same,half-life,in vivo [4],44 ± 8 min
same,F,[5],100 ± 23%
same,"plasma half-life of PTH(1-34) compared to s.c. administration, in words",[5],increased plasma half-life
Aprotinin,increase of mortality,[6],64%

# Source: patent publication US20170304195A1, “PHARMACEUTICAL FORMULATIONS FOR THE ORAL DELIVERY OF PEPTIDE OR PROTEIN DRUGS” (Cyprumed GmbH, priority 2014, published 2017)
